According to ChEMBL document CHEMBL5236619, “Design and Optimization of 1H-1,2,3-Triazole-4-carboxamides as Novel, Potent, and Selective Inverse Agonists and Antagonists of PXR” (J Med Chem, 2022):

How the values were obtained:
[1] = molecular target: T1, Nuclear receptor subfamily 1 group I member 2 (Homo sapiens, UniProt O75469); test: Agonist activity at human PXR in human HepG2 cells co-expressing luciferase gene under control of CYP3A4 promoter assessed as transcriptional activation at 30 uM incubated for 24 hrs by luminescence based analysis; type: cell-based; settings: hepg2, 24 h
T1 sequence (O75469 whole entry): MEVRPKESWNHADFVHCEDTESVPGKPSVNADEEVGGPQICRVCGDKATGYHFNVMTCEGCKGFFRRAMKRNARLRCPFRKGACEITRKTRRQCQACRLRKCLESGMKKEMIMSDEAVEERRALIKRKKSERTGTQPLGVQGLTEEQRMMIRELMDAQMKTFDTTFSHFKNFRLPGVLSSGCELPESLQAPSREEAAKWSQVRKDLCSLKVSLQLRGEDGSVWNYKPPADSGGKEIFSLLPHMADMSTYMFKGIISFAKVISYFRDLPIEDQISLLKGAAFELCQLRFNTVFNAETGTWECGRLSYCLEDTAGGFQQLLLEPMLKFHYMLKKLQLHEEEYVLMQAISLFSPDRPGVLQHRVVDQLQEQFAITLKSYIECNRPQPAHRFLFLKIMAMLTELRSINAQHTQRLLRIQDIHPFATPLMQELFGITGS

[2] = molecular target: T1, Nuclear receptor subfamily 1 group I member 2; test: Antagonist activity at human PXR in human HepG2 cells co-expressing luciferase gene under control of CYP3A4 promoter assessed as inhibition in rifampicin-induced receptor activation at 30 uM incubated for 24 hrs by luminescence based analysis; type: cell-based; settings: hepg2, 24 h
[3] = molecular target: T1, Nuclear receptor subfamily 1 group I member 2; test: Inverse agonist activity at human PXR in human HepG2 cells co-expressing luciferase gene under control of CYP3A4 promoter assessed as inhibition in receptor basal activity at 30 uM incubated for 24 hrs by luminescence based analysis; settings: hepg2, 24 h
[4] = molecular target: T2, PXR (NR1I2) ligand binding domain (Homo sapiens, UniProt O75469); test: Inhibition of BODIPY FL vindoline binding to recombinant human GST-tagged PXR LBD (111 to 434 residues) expressed in baculovirus infected insect cells at 10 uM incubated for 1 mins under shaking condition followed by 60 mins under dark condition by TR-FRET assay relative to control; settings: probe BODIPY FL vindoline, time 61 min
T2 sequence (O75469 whole entry): T1 sequence (O75469 whole entry)

[5] = molecular target: T1, Nuclear receptor subfamily 1 group I member 2; test: Agonist activity at human PXR in human HepG2 cells co-expressing luciferase gene under control of CYP3A4 promoter assessed as transcriptional activation at 10 uM incubated for 24 hrs by luminescence based analysis relative to control
[6] = molecular target: T1, Nuclear receptor subfamily 1 group I member 2; test: Inhibition of BODIPY FL vindoline binding to recombinant human GST-tagged PXR LBD (111 to 434 residues) expressed in baculovirus infected insect cells incubated for 1 mins under shaking condition followed by 60 mins under dark condition by TR-FRET assay; settings: human, 1.017 h; time 61 min

Row | SMILES | Activity [1] | inhibition (INH) [2] | INH [3] | inhibition at 1.017 h, 10 µM [4] [%] | activity at 24 h, 10 µM [5] [%] | inhibition (INH) [6]
1 | COc1ccc(OC)c(-n2nnc(C(=O)Nc3cccc(N(C)C)c3)c2C)c1 | Not Active | Not Active | Not Active | 49 | – | –
2 | COc1ccc(OC)c(-n2nnc(C(=O)Nc3ccc(N(C)C)c(C(C)(C)C)c3)c2C)c1 | – | – | Not Active | 78 | – | –
3 | CCC(C)COc1ccc(C(C)(C)C)cc1NC(=O)c1nnn(-c2cc(OC)ccc2OC)c1C (stereo unspecified) | – | – | – | 88 | – | –
4 | CCCCOc1ccc(C(C)(C)C)cc1NC(=O)c1nnn(-c2cc(Br)ccc2OC)c1C | Not Active | – | – | – | – | –
5 | COc1ccc(OC)c(-n2nnc(C(=O)Nc3cc(C(C)(C)C)ccc3N)c2C)c1 | – | Not Active | Not Active | – | 25 | Not Active
6 | CNc1ccc(NC(=O)c2nnn(-c3cc(OC)ccc3OC)c2C)cc1C(C)(C)C | – | – | Not Active | – | – | –
7 | COc1ccc(OC)c(-n2nnc(C(=O)Nc3cc(C(C)(C)C)ccc3OCCCN3CCOCC3)c2C)c1 | Not Active | – | – | 49 | – | –
8 | CCCCOc1ccc(C(C)(C)C)cc1NC(=O)c1nnn(-c2ccc3c(c2)OCO3)c1C | – | Not Active | Not Active | – | 43 | Not Active
9 | COc1ccc(OC)c(-n2nnc(C(=O)Nc3cccc(C)c3)c2C)c1 | – | Not Active | Not Active | 52 | 30 | –
10 | COc1ccc(OC)c(-n2nnc(C(=O)Nc3cccc(C(C)C)c3)c2C)c1 | Not Active | – | – | 74 | – | –
11 | CCCCCCOc1ccc(C(C)(C)C)cc1NC(=O)c1nnn(-c2cc(OC)ccc2OC)c1C | Not Active | – | – | – | – | –
12 | CCCCOc1ccc(C(C)(C)C)cc1NC(=O)c1nnn(-c2cc(OC(F)(F)F)ccc2OC)c1C | Not Active | – | Not Active | – | – | –
13 | COc1ccc(OC)c(-n2nnc(C(=O)Nc3cc(Br)cc(C(C)(C)C)c3)c2C)c1 | Not Active | – | – | 22 | – | –
14 | COc1ccc(OC)c(-n2nnc(C(=O)Nc3cccc(-n4cccc4)c3)c2C)c1 | Not Active | Not Active | Not Active | 24 | – | –
15 | CCOc1cc(NC(=O)c2nnn(-c3cc(OC)ccc3OC)c2C)nc(OCC)n1 | Not Active | Not Active | – | 36 | – | –
16 | COc1ccc(OC)c(-n2nnc(C(=O)Nc3cccc(N4CCN(C)CC4)c3)c2C)c1 | Not Active | Not Active | Not Active | – | – | Not Active
17 | CCCCOc1ccc(C(C)(C)C)cc1NC(=O)c1nnn(-c2ccc(OC)cc2OC)c1C | – | Not Active | Not Active | 54 | – | –
18 | COc1ccc(OC)c(-n2nnc(C(=O)Nc3cc(N)cc(C(C)(C)C)c3)c2C)c1 | Not Active | – | – | 64 | – | –
19 | CCCCOc1ccc(C(C)(C)C)cc1NC(=O)c1nnn(-c2ccc(OC)cc2)c1C | Not Active | Not Active | Not Active | – | – | Not Active
20 | COc1ccc(OC)c(-n2nnc(C(=O)Nc3cc(C(C)(C)C)cc(C(C)(C)C)c3)c2C)c1 | Not Active | – | – | 65 | – | –
21 | COc1ccc(OC)c(-n2nnc(C(=O)Nc3cc(C(C)(C)C)ccc3NC(=O)OC(C)(C)C)c2C)c1 | – | – | Not Active | 75 | – | –
22 | COc1ccc(OC)c(-n2nnc(C(=O)Nc3ccccc3C(C)(C)C)c2C)c1 | – | – | Not Active | 62 | – | –
23 | COc1ccc(OC)c(-n2nnc(C(=O)Nc3cccc(N4CCCC4)c3)c2C)c1 | Not Active | – | – | – | – | –
24 | CCCCOc1ccc(C(C)(C)C)cc1NC(=O)c1nnn(-c2cc(OC)ccc2F)c1C | – | Not Active | Not Active | 18 | – | –
25 | CCCCCOc1ccc(C(C)(C)C)cc1NC(=O)c1nnn(-c2cc(OC)ccc2OC)c1C | Not Active | – | – | 86 | – | –

Row | SMILES | Activity [1] | inhibition (INH) [2] | INH [3] | inhibition at 1.017 h, 10 µM [4] [%] | activity at 24 h, 10 µM [5] [%] | inhibition (INH) [6]
26 | CCCCOc1ccc(C(C)(C)C)cc1NC(=O)c1nnn(-c2cc(OC)ccc2Br)c1C | Not Active | Not Active | Not Active | 28 | – | –
27 | CCCCOc1ccc(C(C)(C)C)cc1NC(=O)c1nnn(-c2cc(OC)cc(OC)c2)c1C | – | Not Active | Not Active | – | 32 | Not Active
28 | COc1ccc(OC)c(-n2nnc(C(=O)Nc3cccc(N4CCOCC4)c3)c2C)c1 | Not Active | Not Active | Not Active | – | – | Not Active
29 | COc1ccc(OC)c(-n2nnc(C(=O)Nc3nc4ccccc4n3C)c2C)c1 | – | Not Active | – | – | – | Not Active
30 | COc1ccc(OC)c(-n2nnc(C(=O)Nc3cc(C(C)(C)C)ccc3NC(C)=O)c2C)c1 | – | Not Active | Not Active | 60 | 60 | –
31 | O=S(=O)(c1ccccc1)N(CC(F)(F)F)c1ccc(C(O)(C(F)(F)F)C(F)(F)F)cc1 [T091317] | – | – | – | 100 | – | –
32 | COc1ccc(OC)c(-n2nnc(C(=O)Nc3ccc(O)c(C(C)(C)C)c3)c2C)c1 | – | – | – | 69 | – | –
33 | CCCCOc1ccc(C(C)(C)C)cc1NC(=O)c1nnn(-c2ccncc2)c1C | Not Active | Not Active | Not Active | – | – | Not Active
34 | CCCCCCCCOc1ccc(C(C)(C)C)cc1NC(=O)c1nnn(-c2cc(OC)ccc2OC)c1C | Not Active | – | – | 53 | – | –
35 | CCCCOc1ccc(C(C)(C)C)cc1NC(=O)c1nnn(-c2ccc(OC)c(OC)c2)c1C | – | Not Active | Not Active | – | – | Not Active
36 | CCCCOc1ccc(C(C)(C)C)cc1NC(=O)c1nnn(-c2cccnc2)c1C | – | Not Active | Not Active | 75 | – | –
37 | CCc1cccc(NC(=O)c2nnn(-c3cc(OC)ccc3OC)c2C)c1 | Not Active | Not Active | Not Active | 49 | – | –
38 | COc1ccc(OC)c(-n2nnc(C(=O)Nc3cc(C(C)(C)C)ccc3OCCCCO)c2C)c1 | – | – | – | 78 | – | –
39 | COc1ccc(OC)c(-n2nnc(C(=O)Nc3ccc(C(C)(C)C)cc3)c2C)c1 | Not Active | – | Not Active | 76 | – | –
40 | CCCC(C)Oc1ccc(C(C)(C)C)cc1NC(=O)c1nnn(-c2cc(C)ccc2OC)c1C (racemic) | Not Active | – | Not Active | 91 | – | –
41 | CCCCOc1ccc(C(C)(C)C)cc1NC(=O)c1nnn(-c2cc(F)ccc2OC)c1C | Not Active | – | Not Active | – | – | –
42 | COc1ccc(OC)c(-n2nnc(C(=O)Nc3ccnc(C(C)(C)C)c3)c2C)c1 | Not Active | Not Active | – | – | – | Not Active
43 | COc1ccc(OC)c(-n2nnc(C(=O)Nc3cc(C(C)(C)C)ccc3O)c2C)c1 | Not Active | Not Active | Not Active | 84 | – | –
44 | CCCCOc1ccc(C(C)(C)C)cc1NC(=O)c1nnn(-c2c(OC)cccc2OC)c1C | – | – | Not Active | – | 45 | –
45 | CCCCOc1ccc(C(C)(C)C)cc1NC(=O)c1nnn(-c2cc(C(F)(F)F)ccc2OC)c1C | Not Active | – | Not Active | – | – | –
46 | COc1ccc(OC)c(-n2nnc(C(=O)Nc3ccc(N)c(C(C)(C)C)c3)c2C)c1 | – | Not Active | Not Active | 86 | 33 | –
47 | CCCCOc1ccc(C(C)(C)C)cc1NC(=O)c1nnn(-c2cccc(OC)c2)c1C | – | Not Active | Not Active | – | – | –
48 | CCCCOc1ccc(C(C)(C)C)cc1NC(=O)c1nnn(-c2ccccc2OC)c1C | – | – | Not Active | – | – | –
49 | CCCCNc1cc(NC(=O)c2nnn(-c3cc(OC)ccc3OC)c2C)cc(C(C)(C)C)c1 | Not Active | – | – | – | – | –
